Patent publication US20120245180A1, “COMBINATION” (GlaxoSmithKline LLC, priority 2009, published 2012)
Read-outs that look alike come from different tables or passages of the source. Blank lines part the entries; values can stand above or below the compound they belong to.

What was measured:
[1] = tested on: hepatocellular carcinoma (HCC) cell lines; experiment: Cell growth inhibition, panel of 10 HCC cell lines; assay type: cell-based, human; conditions: for IC50: Homo sapiens
Description: (§1) Human tumor cell lines from hepatocellular carcinoma (HCC), C3A, Hep3B, HepG2, PLC/PRF/5, SNU182, SNU387, SNU398, SNU423, SNU449 and SNU475 were purchased from the ATCC. Human breast tumor cell lines, HCC2218, HCC1419, BT-474, SK-BR-3, UACC893, JIMT-1, MDA-MB-361, HCC202, MDA-MB-175-VII, HCC1569, HCC1937, HCC38, MDA-MB-157, HCC1954, HCC1500, BT483, KPL-1, SUM225 and ZR-75-1 from ATCC, SUM52 and SUM190 from Asterand, PLC (Detroit Mich.), were cultured in RPMI 1640 medium containing 10% FBS; SKBR3-W13 and BT-474-J4 cultured in RPMI 1640 medium containing 10% FBS and 1 μM lapatinib; KPL4 line was kindly provided by Dr Junichi Kurebayashi (Kawasaki Medical School, Okayama, Japan) and cultured in DMEM containing 5% FBS. JIMT-1 from European Collection of Cell Cultures (UK), is a line derived from a patient clinically resistant to trastuzumab (Herceptin®). SK-BR-3-W13 is a single cell clone isolated by a cloning cylinder after a single treatment of SK-BR-3 cells with 0.5 μM lapatinib. BT-474-J4 is a single cell clone derived from a pool of BT-474 cells that were selected to grow in lapatinib to a concentration of 3 μM.
(§2) Cells were seeded in a 96-well tissue culture plate (NUNC 136102) of RPMI medium containing 10% FBS at 500-2,000 cells per well. Approximately 24 hours after plating, cells were exposed to ten, two-fold or three-fold serial dilutions of either Compound A or B or the combination of the two agents at a 2:1 molar ratio (Compounds A and B respectively). In some cases, cells were grown in RPMI media containing 10% FBS and in the presence or absence of 2 ng/mL hepatocyte growth factor (HGF). Cells were incubated in the presence of compounds for 3 days. ATP levels were determined by adding Cell Titer Glo® (Promega) according to the manufacturer's protocol. Briefly, Cell Titer Glo® was added to each plate, incubated for 20 minutes then luminescent signal was read on the SpectraMax L plate reader with a 0.5 sec integration time. All assays were run at least in duplicate.
(§3) Inhibition of cell growth was estimated after treatment with compound or combination of compounds for three days and comparing the signal to cells treated with vehicle (DMSO). Cell growth was calculated relative to vehicle (DMSO) treated control wells. Concentration of compound that inhibits 50% of control cell growth (IC50) was back-interpolated when y=50% of DMSO treated control wells using nonlinear regression with the equation: […]
(§4) where A is the minimum response (ymin), B is the maximum response (Ymax), C is the inflection point of the curve (EC50) and D is the Hill coefficient.
(§5) Combination effects on potency were evaluated using the Combination Index (CI) and Excess Over Highest Single Agent (EHOSA) methods.

[2] = tested on: HCC1500; experiment: Cell growth inhibition assay, breast tumor cell line (Cell Titer Glo); assay type: cell-based; conditions: Homo sapiens, 72 h, HCC1500 (HER2−), 3 days
Description: as §1, §2, §3, §4, §5
(§6) DNA Copy number data on the HER2 gene was collected for all breast cancer cell lines using the Affymetrix 500K chip (Affymetrix Inc, Sunnyvale, Calif.). Briefly DNA was extracted from each line, digested with the restriction enzyme Nsp or Sty, ligated to an adaptor and amplified by PCR. After PCR, DNA was fragmented, labeled, denatured, and hybridized to the Affymetrix 500K chip. Upon completion of hybridization, each assay was washed and stained. Image data were acquired. Similarly collected data from a panel 10 diploid non-tumorigenic lymphoblastic cell lines were used to calculate DNA copy number. All ‘SNP Chip’ images ('CEL files'), were extracted, read and normalized using the dChip software package (Lin et al. 2004. Bioinformatics. 20:1233-40). SNP-wise ‘copy-number ratios’ (log2 scale) were calculated for all cancer cell lines using the lymphoblastic reference panel and analyzed by circular binary segmentation to reduce noise (Olshen et al. 2004. Biostatistics. 5:557-72). Cell lines with log2 ratios of HER2>0.65 were considered HER2+.

[3] = tested on: MDA-MB-361; experiment: as above; assay type: cell-based; conditions: Homo sapiens, 72 h, MDA-MB-361 (HER2+), 3 days
Description: as §1, §2, §3, §4, §5, §6

[4] = tested on: MDA-MB-157; experiment: as above; assay type: cell-based; conditions: Homo sapiens, 72 h, MDA-MB-157 (HER2−), 3 days
Description: as §1, §2, §3, §4, §5, §6

[5] = tested on: HCC1937; experiment: as above; assay type: cell-based; conditions: Homo sapiens, 72 h, HCC1937 (HER2−), 3 days
Description: as §1, §2, §3, §4, §5, §6

[6] = tested on: SUM190; experiment: as above; assay type: cell-based; conditions: Homo sapiens, 72 h, SUM190 (HER2+), 3 days
Description: as §1, §2, §3, §4, §5, §6

[7] = tested on: SUM225; experiment: as above; assay type: cell-based; conditions: Homo sapiens, 72 h, SUM225 (HER2+), 3 days
Description: as §1, §2, §3, §4, §5, §6

[8] = tested on: BT474; experiment: as above; assay type: cell-based; conditions: Homo sapiens, BT-474, 72 h, BT474 (HER2+), 3 days
Description: as §1, §2, §3, §4, §5, §6

[9] = tested on: HCC38; experiment: as above; assay type: cell-based; conditions: Homo sapiens, 72 h, HCC38 (HER2−), 3 days
Description: as §1, §2, §3, §4, §5, §6

[10] = tested on: BT483; experiment: as above; assay type: cell-based; conditions: Homo sapiens, BT-483, 72 h, BT483 (HER2−), 3 days
Description: as §1, §2, §3, §4, §5, §6

[11] = tested on: SK-BR-3-W13; experiment: as above; assay type: cell-based; conditions: Homo sapiens, 72 h; SK-BR-3-W13 (HER2+), 3 days; read-out: Single agent IC50, Compound A
Description: as §1, §2, §3, §4, §5, §6

[12] = tested on: Human breast tumor cell lines; experiment: Cell growth inhibition, panel of breast tumor cell lines; assay type: cell-based
Description: Human tumor cell lines from hepatocellular carcinoma (HCC), C3A, Hep3B, HepG2, PLC/PRF/5, SNU182, SNU387, SNU398, SNU423, SNU449 and SNU475 were purchased from the ATCC. […]
Cells were seeded in a 96-well tissue culture plate (NUNC 136102) of RPMI medium containing 10% FBS at 500-2,000 cells per well. […] ATP levels were determined by adding Cell Titer Glo® (Promega) according to the manufacturer's protocol. Briefly, Cell Titer Glo® was added to each plate, incubated for 20 minutes then luminescent signal was read on the SpectraMax L plate reader with a 0.5 sec integration time. […]
Inhibition of cell growth was estimated after treatment with compound or combination of compounds for three days and comparing the signal to cells treated with vehicle (DMSO). Cell growth was calculated relative to vehicle (DMSO) treated control wells. […]
as §5
DNA Copy number data on the HER2 gene was collected for all breast cancer cell lines using the Affymetrix 500K chip (Affymetrix Inc, Sunnyvale, Calif.). […] All ‘SNP Chip’ images ('CEL files'), were extracted, read and normalized using the dChip software package (Lin et al. 2004. Bioinformatics. 20:1233-40). […]

[13] = read-out: Single agent IC50, Compound A
[14] = read-out: Single agent IC50, Compound B

- IC50 ([1]; SNU 182 and PLC/PRF/5 epithelial-like cell lines): 1200 to 2800 nM
- IC50 ([1]; epithelial-like HCC cell lines HepG2, C3A and Hep3B): < 37 nM
- IC50 ([1]; mesenchymal-like HCC cell lines SNU387 and SNU423): 74 to 577 nM
- IC50 [2, 13]: > 1000 nM
- IC50 [3, 13]: > 1000 nM
- IC50 [4, 13]: > 1000 nM
- IC50 [5, 13]: > 1000 nM
- IC50 [6, 13]: > 1000 nM
- IC50 [7, 13]: > 1000 nM
- IC50 [8, 13]: > 1000 nM
- IC50 [9, 13]: > 1000 nM
- IC50 [10, 13]: > 1000 nM
- IC50 [11]: > 1000 nM
- IC50 ([12]; SUM52 and MDA-MB-17511): ≤ 99 nM
SMILES: CC(=O)Nc1cccc(-n2c(=O)n(C3CC3)c(=O)c3c(Nc4ccc(I)cc4F)n(C)c(=O)c(C)c32)c1 [Compound A, N-{3-[3-cyclopropyl-5-[(2-fluoro-4-iodophenyl)amino]-6,8-dimethyl-2,4,7-trioxo-3,4,6,7-tetrahydropyrido[4,3-d]pyrimidin-1(2H)-yl]phenyl}acetamide]
- sensitivity to cell growth inhibition ([1]; mesenchymal-like cell lines SNU398, SNU449 and SNU475): not sensitive

- IC50 ([1]; all 10 HCC lines): < 103 nM
- IC50 [2, 14]: 61 ± 36 nM
- IC50 [3, 14]: 9 ± 2 nM
- IC50 [4, 14]: > 1000 nM
- IC50 [5, 14]: 114 ± 63 nM
- IC50 [6, 14]: 6 ± 3 nM
- IC50 [7, 14]: 13 ± 14 nM
- IC50 [8, 14]: 30 ± 7 nM
- IC50 [9, 14]: 95 ± 34 nM
- IC50 [10, 14]: 106 ± 81 nM
- IC50 ([12]; all lines except HCC1937, SK-Br-3-W13 and MDA-MB-157): < 100 nM
SMILES: COc1ncc(-c2ccc3nccc(-c4ccnnc4)c3c2)cc1NS(=O)(=O)c1ccc(F)cc1F [Compound B, 2,4-difluoro-N-{2-(methyloxy)-5-[4-(4-pyridazinyl)-6-quinolinyl]-3-pyridinyl}benzenesulfonamide]
